Measurements: US20260078135A1, “POLYCYCLIC QUINAZOLINES FOR INHIBITION OF ERBB2” (Enliven Inc., priority 2022, published 2026)
pIC50: −log10 of the molar value.

Columns and labels:
[1] = molecular target: T1, phosphorylated ERBB2 (pERBB2) (Homo sapiens, UniProt P04626); test: Detection of phosphorylated ERBB2 (pERBB2) by ELISA in BT-474 cells; assay type: cell-based; details: four hour incubation
T1 construct: endogenous in cells; host or cells: BT-474
Procedure: BT-474 cells were seeded into a 96-well at 2.0*10^4 cells/100 μl/well. Compounds were dissolved and serially diluted in DMSO. The compounds were then were added, mixed, and incubated for four hours at 37° C., 5% CO2. Compounds were added using four-fold dilutions at final concentrations ranging from 10 μM to 0.01 nM. Following the four hour incubation with compounds, cell lysates were prepared. Plates were centrifuged for 5 μmin at 3000 RPM, and supernatant was removed from each well. Cells were washed 3 times by resuspension in 150 μl PBS, followed by centrifugation and removal of the supernatant, as above. 100 μl of cell lysis buffer (Boston BioProducts, cat #BP-115D) supplied with 1× complete ULTRA cocktail inhibitor (Thermo ScientificTM, cat #78443) was then added to the washed cells. Cells were incubated with lysis buffer for 1 hour at 4° C., and then stored at -80° C. Enzyme-linked immunosorbent assays (ELISA) were performed to measure phosphorylated ERBB2 levels. […] The next day, plates were washed with PBS+0.05% Tween20 (PBST). 150 μl of 5% BSA blocking solution was added for 1 hour at room temperature, with shaking. Plates were washed with PBST. Cell lysates were thawed and 100 μl of lysate was added to the ELISA plate. The plates were incubated for 2 hours at room temperature, with shaking. ELISA plates were then washed with PBST and 100 μl of an HRP-labeled detection antibody that binds phosphorylated tyrosine (R&D Systems, cat #841913) was added to each well. Plates were incubated for 1 hour at room temperature, with shaking. Plates were then washed with PBST, and 100 μl TMB substrate solution (R&D Systems, cat #DY999) was added. Plate were incubated in the dark for 20 minutes at room temperature. 50 μl of Stop solution (R&D Systems, cat #DY994) (50 μl) was added to each well and mixed. Optical density at 450 nm was read on an EnSpire plate reader (Perkin Elmer). The remaining kinase activity by calculated using the following formula: % Relative activity=100×([…]). The low and high control values (“LC” and “HC”) were generated from lysate from wells without cells or with cells treated with 0.1% DMSO, respectively.

[2] = molecular target: T2, phosphorylated EGFR (pEGFR) (Homo sapiens, UniProt P00533); test: Detection of phosphorylated EGFR (pEGFR) by AlphaLISA in EGF-stimulated A431 cells; assay type: cell-based; details: A431 cells (10% FBS), 4 hours incubation, EGF 30 ng/mL for 10 minutes
T2 construct: performed to measure phosphorylated EGFR levels using A431 cells (10% FBS); endogenous in cells; host or cells: A431
T2 sequence (P00533 25-1210): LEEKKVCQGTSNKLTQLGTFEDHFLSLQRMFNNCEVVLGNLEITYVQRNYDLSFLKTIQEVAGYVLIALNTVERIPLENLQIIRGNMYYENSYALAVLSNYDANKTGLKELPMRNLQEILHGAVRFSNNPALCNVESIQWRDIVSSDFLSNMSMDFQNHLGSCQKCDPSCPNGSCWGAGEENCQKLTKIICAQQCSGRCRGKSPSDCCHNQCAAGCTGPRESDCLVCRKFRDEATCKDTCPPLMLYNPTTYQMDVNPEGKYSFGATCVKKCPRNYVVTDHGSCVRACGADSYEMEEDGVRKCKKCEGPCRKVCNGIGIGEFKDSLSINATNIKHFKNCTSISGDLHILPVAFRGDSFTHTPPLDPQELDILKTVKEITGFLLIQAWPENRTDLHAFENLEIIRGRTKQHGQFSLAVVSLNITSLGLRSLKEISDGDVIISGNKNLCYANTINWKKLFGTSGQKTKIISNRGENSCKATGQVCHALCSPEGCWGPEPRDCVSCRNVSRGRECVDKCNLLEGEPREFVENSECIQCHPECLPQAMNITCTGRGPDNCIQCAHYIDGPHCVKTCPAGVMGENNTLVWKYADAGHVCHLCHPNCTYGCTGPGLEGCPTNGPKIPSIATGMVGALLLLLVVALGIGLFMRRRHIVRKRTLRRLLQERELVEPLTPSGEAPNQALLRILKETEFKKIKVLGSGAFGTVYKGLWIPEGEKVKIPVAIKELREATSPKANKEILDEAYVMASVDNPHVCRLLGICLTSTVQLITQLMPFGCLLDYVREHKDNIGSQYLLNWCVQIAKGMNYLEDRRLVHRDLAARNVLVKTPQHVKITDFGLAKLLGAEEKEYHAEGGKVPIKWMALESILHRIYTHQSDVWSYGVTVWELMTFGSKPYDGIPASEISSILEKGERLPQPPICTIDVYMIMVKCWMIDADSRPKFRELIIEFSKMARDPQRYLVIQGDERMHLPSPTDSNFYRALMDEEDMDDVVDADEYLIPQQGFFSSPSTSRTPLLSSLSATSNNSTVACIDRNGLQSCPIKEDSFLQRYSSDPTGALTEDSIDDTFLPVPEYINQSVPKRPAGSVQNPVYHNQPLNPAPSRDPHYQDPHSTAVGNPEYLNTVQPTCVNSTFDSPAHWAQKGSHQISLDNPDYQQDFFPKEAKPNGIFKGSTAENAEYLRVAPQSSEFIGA
Procedure: Enzyme-linked immunosorbent assays (ELISA) were performed to measure phosphorylated EGFR levels using A431 cells (10% FBS). A431 (1.0*10^4 cells/40 μl/well) cells were seeded in 384 well. Compounds were dissolved in DMSO, serially diluted in DMSO and then were added, mixed, and incubated for 4 hours at 37° C., 5% C02. Following the 4-hours incubation, cells were stimulated for 10 minutes with EGF (Invitrogen, cat #PHG0311) at a final concentration of 30 ng/mL in the incubator. The media was aspirated and cells were lysed in 10 μL lysis buffer with protease and phosphatase inhibitors (PerkinElmer, cat #ALSU-PEGFR-A50K). The plates were placed on a shaker for 5 μminutes and then incubated for 30 min at 4° C. for complete lysis. The lysate was transferred to an Optiplate (Perkin Elmer, cat #6007290).
Acceptor mix (PerkinElmer, cat #ALSU-PEGFR-A50K) was prepared just before use and 5 μL was dispensed to all the wells, followed by a 1.5-2 h incubation at room temperature in dark. The donor mix (PerkinElmer, cat #ALSU-PEGFR-A50K) was prepared under low light conditions prior to use and 5 μl of donor mix was added to all the wells under subdued lighting or green filters. The plates were placed on a shaker for 5 μmin, sealed, and incubated overnight at room temperature in dark. Plates were read on the Envision (PerkinElmer) using standard AlphaLISA settings.
The percentage of inhibition on EGFR phosphorylation was calculated following equation: % Inhibition=100×(LumHC−LumSample)/(LumHC−LumLC). The low and high controls (LC/HC) are generated from lysate from wells with cells treated with DMSO or […] Staurosporine (BioAustralis, cat #BIA-S1086), […]. IC50 values were calculated by fitting the Curve using XLfit (v5.3.1.3), equation 201: Y=Bottom+(Top−Bottom)/(1+10^((Log IC50−X)*HillSlope)).

T1 sequence (P04626 23-1255): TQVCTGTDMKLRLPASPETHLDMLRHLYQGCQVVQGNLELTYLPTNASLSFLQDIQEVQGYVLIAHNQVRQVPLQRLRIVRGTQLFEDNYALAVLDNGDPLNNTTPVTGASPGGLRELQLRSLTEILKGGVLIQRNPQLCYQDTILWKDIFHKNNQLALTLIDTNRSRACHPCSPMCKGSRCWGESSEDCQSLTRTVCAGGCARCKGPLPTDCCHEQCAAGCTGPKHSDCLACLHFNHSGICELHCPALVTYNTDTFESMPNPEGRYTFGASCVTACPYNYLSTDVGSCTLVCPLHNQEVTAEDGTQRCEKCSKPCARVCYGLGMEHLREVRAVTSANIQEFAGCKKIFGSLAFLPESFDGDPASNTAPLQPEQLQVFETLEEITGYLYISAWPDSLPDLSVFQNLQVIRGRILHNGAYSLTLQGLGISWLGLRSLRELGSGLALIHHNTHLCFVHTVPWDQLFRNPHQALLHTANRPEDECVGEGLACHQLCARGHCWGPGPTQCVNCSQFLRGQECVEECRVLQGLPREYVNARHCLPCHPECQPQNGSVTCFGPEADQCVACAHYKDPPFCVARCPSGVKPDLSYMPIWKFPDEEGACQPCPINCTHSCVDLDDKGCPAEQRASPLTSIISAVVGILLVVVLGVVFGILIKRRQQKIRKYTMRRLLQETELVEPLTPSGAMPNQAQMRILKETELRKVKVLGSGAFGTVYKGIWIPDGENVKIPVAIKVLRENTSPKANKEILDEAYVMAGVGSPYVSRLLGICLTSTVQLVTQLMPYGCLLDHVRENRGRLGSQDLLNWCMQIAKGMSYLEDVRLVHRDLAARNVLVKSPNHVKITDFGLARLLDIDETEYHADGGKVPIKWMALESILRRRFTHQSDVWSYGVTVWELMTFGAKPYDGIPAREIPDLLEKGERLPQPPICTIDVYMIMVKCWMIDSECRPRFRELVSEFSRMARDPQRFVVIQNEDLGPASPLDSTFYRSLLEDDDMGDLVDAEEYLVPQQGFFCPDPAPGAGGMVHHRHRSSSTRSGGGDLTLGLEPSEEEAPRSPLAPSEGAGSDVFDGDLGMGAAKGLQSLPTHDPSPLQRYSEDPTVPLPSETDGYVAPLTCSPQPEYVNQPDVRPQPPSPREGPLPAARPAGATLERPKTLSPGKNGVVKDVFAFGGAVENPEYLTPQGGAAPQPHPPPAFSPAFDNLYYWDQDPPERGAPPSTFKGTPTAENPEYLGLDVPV

Q: With `CCN1CCN2c3nc4c(Nc5ccc(Oc6ccn7ncnc7c6)c(C)c5)ncnc4cc3OC[C@@H]2C1` [Compound 65, (S)—N-(4-([1,2,4]triazolo[1,5-a]pyridin-7-yloxy)-3-methylphenyl)-3-ethyl-1,2,3,4,4a,5-hexahydropyrazino[1,2-d]pyrimido[4′,5′:5,6]pyrido[3,2-b][1,4]oxazin-11-amine] as the compound, how does the pIC50 [1] read?
A: 7.02

Q: And the pIC50 [2]?
A: < 5.00

Q: `Cc1cc(Nc2ncnc3ccc4c(c23)OC[C@@H]2CN4CCN2)ccc1Oc1ccc2c(c1)ncn2C` [Compound 53, (3S)—N-(3-methyl-4-((1-methyl-1H-benzo[d]imidazol-5-yl)oxy)phenyl)-3,4,5,6-tetrahydro-2H-3,7-methano[1,4,7]oxadiazonino[2,3-f]quinazolin-13-amine] was tested. Which pIC50 [1] did it give?
A: 6.27

Q: What about the pIC50 [2] of the same compound?
A: < 5.00

Q: `Cc1cc(Nc2ncnc3ccc4c(c23)OC[C@@H]2CNCCN42)ccc1Oc1ccc2c(c1)ncn2C` [Compound 47, (S)—N-(3-methyl-4-((1-methyl-1H-benzo[d]imidazol-5-yl)oxy)phenyl)-6,6a,7,8,9,10-hexahydropyrazino[1′,2′:4,5][1,4]oxazino[2,3-f]quinazolin-4-amine] was tested. Which pIC50 [1] did it give?
A: 7.04

Q: What about the pIC50 [2] of the same compound?
A: < 5.00

Q: How did the pIC50 [1] turn out when `Cc1cc(Nc2ncnc3ccc4c(c23)OC[C@@H]2CN(C)CCN42)ccc1Oc1ccc2c(c1)ncn2C` [Compound 48, (S)-8-methyl-N-(3-methyl-4-((1-methyl-1H-benzo[d]imidazol-5-yl)oxy)phenyl)-6,6a,7,8,9,10-hexahydropyrazino[1′,2′:4,5][1,4]oxazino[2,3-f]quinazolin-4-amine] was run?
A: 6.84

Q: And the pIC50 [2]?
A: < 5.00

Q: With `Cc1cc(Nc2ncnc3cc4c(nc23)N2CC[C@H]2CO4)ccc1Oc1ccn2ncnc2c1` [Compound 70, (S)—N-(4-([1,2,4]triazolo[1,5-a]pyridin-7-yloxy)-3-methylphenyl)-1,2,2a,3-tetrahydroazeto[1,2-d]pyrimido[4′,5′:5,6]pyrido[3,2-b][1,4]oxazin-9-amine] as the compound, how does the pIC50 [1] read?
A: 6.73

Q: What about the pIC50 [2] of the same compound?
A: < 5.00

Q: Which results are given for `COC(=O)N1CCN2c3ccc4ncnc(Nc5ccc(Oc6ccn7ncnc7c6)c(C)c5)c4c3OC[C@H]2C1` [Compound 110, methyl (R)-4-((4-([1,2,4]triazolo[1,5-a]pyridin-7-yloxy)-3-methylphenyl)amino)-6a,7,9,10-tetrahydropyrazino[1′,2′:4,5][1,4]oxazino[2,3-f]quinazoline-8(6H)-carboxylate]?
A: pIC50 [1]: 7.13; pIC50 [2]: < 5.00

Q: With `Cc1cc(Nc2ncnc3ccc4c(c23)OC[C@@H]2CN4CCO2)ccc1Oc1ccn2ncnc2c1` [Compound 72, (3S)—N-(4-([1,2,4]triazolo[1,5-a]pyridin-7-yloxy)-3-methylphenyl)-2,3,5,6-tetrahydro-3,7-methano[1,4,7]dioxazonino[5,6-f]quinazolin-13-amine] as the compound, how does the pIC50 [1] read?
A: 6.38

Q: What about the pIC50 [2] of the same compound?
A: < 5.00

Q: What does the source list for `Fc1cc(Oc2ccn3ncnc3c2)ccc1Nc1ncnc2ccc3c(c12)OC[C@H]1COCCN31` [Compound 101, (R)—N-(4-([1,2,4]triazolo[1,5-a]pyridin-7-yloxy)-2-fluorophenyl)-6a,7,9,10-tetrahydro-6H-[1,4]oxazino[4′,3′:4,5][1,4]oxazino[2,3-f]quinazolin-4-amine]?
A: pIC50 [1]: 6.30; pIC50 [2]: < 5.00

Q: `Cc1cc(Nc2ncnc3cc4c(cc23)N2CCNC[C@@H]2CO4)ccc1Oc1ccc2c(c1)ncn2C` [Compound 63, (R)—N-(3-methyl-4-((1-methyl-1H-benzo[d]imidazol-5-yl)oxy)phenyl)-1,2,3,4,4a,5-hexahydropyrazino[1′,2′:4,5][1,4]oxazino[3,2-g]quinazolin-11-amine] was tested. Which pIC50 [1] did it give?
A: 6.82

Q: What about the pIC50 [2] of the same compound?
A: < 5.00

Q: `COCCN1CCN2c3ccc4ncnc(Nc5ccc(Oc6ccn7ncnc7c6)c(C)c5)c4c3OC[C@H]2C1` [Compound 111, (R)—N-(4-([1,2,4]triazolo[1,5-a]pyridin-7-yloxy)-3-methylphenyl)-8-(2-methoxyethyl)-6,6a,7,8,9,10-hexahydropyrazino[1′,2′:4,5][1,4]oxazino[2,3-f]quinazolin-4-amine] was tested. Which pIC50 [1] did it give?
A: 7.34

Q: What about the pIC50 [2] of the same compound?
A: < 5.00

Q: `Cc1cc(Nc2ncnc3cc4c(cc23)N2CCNC[C@H]2CO4)ccc1Oc1ccn2ncnc2c1` [Compound 57, (S)—N-(4-([1,2,4]triazolo[1,5-a]pyridin-7-yloxy)-3-methylphenyl)-1,2,3,4,4a,5-hexahydropyrazino[1′,2′:4,5][1,4]oxazino[3,2-g]quinazolin-11-amine] was tested. Which pIC50 [1] did it give?
A: 7.57

Q: And the pIC50 [2]?
A: < 5.00

Q: With `Cc1cc(Nc2ncnc3ccc4c(c23)OC[C@H]2CN4CCN2)ccc1Oc1ccc2c(c1)ncn2C` [Compound 55, (3R)—N-(3-methyl-4-((1-methyl-1H-benzo[d]imidazol-5-yl)oxy)phenyl)-3,4,5,6-tetrahydro-2H-3,7-methano[1,4,7]oxadiazonino[2,3-f]quinazolin-13-amine] as the compound, how does the pIC50 [1] read?
A: 6.97

Q: What about the pIC50 [2] of the same compound?
A: < 5.00

Q: Which results are given for `Cc1cc(Nc2ncnc3cc4c(nc23)N2CCN(C)C[C@H]2CO4)c(F)cc1Oc1ccn2ncnc2c1` [Compound 75, (S)—N-(4-([1,2,4]triazolo[1,5-a]pyridin-7-yloxy)-2-fluoro-5-methylphenyl)-3-methyl-1,2,3,4,4a,5-hexahydropyrazino[1,2-d]pyrimido[4′,5′:5,6]pyrido[3,2-b][1,4]oxazin-11-amine]?
A: pIC50 [1]: 7.13; pIC50 [2]: < 5.00

Q: How did the pIC50 [1] turn out when `Cc1cc(Nc2ncnc3ccc4c(c23)OC[C@H]2CN4CCO2)ccc1Oc1ccn2ncnc2c1` [Compound 71, (3R)—N-(4-([1,2,4]triazolo[1,5-a]pyridin-7-yloxy)-3-methylphenyl)-2,3,5,6-tetrahydro-3,7-methano[1,4,7]dioxazonino[5,6-f]quinazolin-13-amine] was run?
A: 6.64

Q: And the pIC50 [2]?
A: < 5.00

Q: With `Cc1cc(Nc2ncnc3ccc4c(c23)OC[C@@H]2CNCCN42)ccc1Oc1ccn2ncnc2c1` [Compound 43, (S)—N-(4-([1,2,4]triazolo[1,5-a]pyridin-7-yloxy)-3-methylphenyl)-6,6a,7,8,9,10-hexahydropyrazino[1′,2′:4,5][1,4]oxazino[2,3-f]quinazolin-4-amine] as the compound, how does the pIC50 [1] read?
A: 7.12

Q: And the pIC50 [2]?
A: < 5.00

Q: How did the pIC50 [1] turn out when `Cc1cc(Nc2ncnc3ccc4c(c23)OC[C@H]2CN(C)CCN42)ccc1Oc1ccn2ncnc2c1` [Compound 42, (R)—N-(4-([1,2,4]triazolo[1,5-a]pyridin-7-yloxy)-3-methylphenyl)-8-methyl-6,6a,7,8,9,10-hexahydropyrazino[1′,2′:4,5][1,4]oxazino[2,3-f]quinazolin-4-amine] was run?
A: 7.50

Q: What about the pIC50 [2] of the same compound?
A: < 5.00

Q: How did the pIC50 [1] turn out when `Cc1cc(Nc2ncnc3ccc4c(c23)OC[C@H]2CCCN42)ccc1Oc1ccn2ncnc2c1` [Compound 87, (R)—N-(4-([1,2,4]triazolo[1,5-a]pyridin-7-yloxy)-3-methylphenyl)-6a,7,8,9-tetrahydro-6H-pyrrolo[1′,2′:4,5][1,4]oxazino[2,3-f]quinazolin-4-amine] was run?
A: 7.12

Q: What about the pIC50 [2] of the same compound?
A: < 5.00

Q: With `CC(=O)N1CCN2c3ccc4ncnc(Nc5ccc(Oc6ccn7ncnc7c6)c(C)c5)c4c3OC[C@H]2C1` [Compound 109, (R)-1-(4-((4-([1,2,4]triazolo[1,5-a]pyridin-7-yloxy)-3-methylphenyl)amino)-6a,7,9,10-tetrahydropyrazino[1′,2′:4,5][1,4]oxazino[2,3-f]quinazolin-8(6H)-yl)ethan-1-one] as the compound, how does the pIC50 [2] read?
A: < 5.00
